In US20220372040A1, “METTL3 MODULATORS” (Accent Therapeutics, Inc., priority 2020, published 2022) one finds IC50 data, which are given here for 26 compounds.

What all share (assay type): biochemical
For assay [1], the target named is METTL3/METTL14 (Homo sapiens, UniProt Q86U44). In words: METTL3-14 standard enzyme assay (3H-SAM flashplate scintillation). As to conditions: METTL3/METTL14 2.5 nM, RNA 100 nM, 3H-SAM 100 nM, 30 min. In a few lines:
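METTL3/METTL14 (2.5 nM final) preincubated 5 min with compound in 20 mM HEPES pH 7.5, 50 mM KCl, 250 μM MgCl2, 1 mM DTT, ambient temperature; started with 100 nM 3′-biotinylated RNA (UCUGGACUAAA) and 100 nM 3H-SAM. After 30 min, quenched with 15 μM cold SAM; methylated RNA captured on streptavidin flashplates and counted by scintillation.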

The target of assay [2] is PRMT5-MEP50 (Homo sapiens, UniProt O14744). The assay can be described thus: PRMT5 assay (3H-SAM flashplate scintillation). The settings on record: PRMT5-MEP50 2.5 nM, histone H4 peptide 100 nM, 3H-SAM 250 nM, 60 min. In a few lines:
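PRMT5-MEP50 (2.5 nM final) preincubated 5 min with compound, then reacted 60 min at ambient temperature with 100 nM biotinylated N-acetyl histone H4 peptide and 250 nM 3H-SAM in 20 mM Tris-HCl pH 8.0, 1 mM DTT, 0.01% Tween. Quenched with 15 μM cold SAM; methylated peptide captured on streptavidin flashplates, scintillation counted.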

Assay [3] addresses T1, METTL16 (Homo sapiens, UniProt Q86W50).
T1 sequence (Q86W50 1-562): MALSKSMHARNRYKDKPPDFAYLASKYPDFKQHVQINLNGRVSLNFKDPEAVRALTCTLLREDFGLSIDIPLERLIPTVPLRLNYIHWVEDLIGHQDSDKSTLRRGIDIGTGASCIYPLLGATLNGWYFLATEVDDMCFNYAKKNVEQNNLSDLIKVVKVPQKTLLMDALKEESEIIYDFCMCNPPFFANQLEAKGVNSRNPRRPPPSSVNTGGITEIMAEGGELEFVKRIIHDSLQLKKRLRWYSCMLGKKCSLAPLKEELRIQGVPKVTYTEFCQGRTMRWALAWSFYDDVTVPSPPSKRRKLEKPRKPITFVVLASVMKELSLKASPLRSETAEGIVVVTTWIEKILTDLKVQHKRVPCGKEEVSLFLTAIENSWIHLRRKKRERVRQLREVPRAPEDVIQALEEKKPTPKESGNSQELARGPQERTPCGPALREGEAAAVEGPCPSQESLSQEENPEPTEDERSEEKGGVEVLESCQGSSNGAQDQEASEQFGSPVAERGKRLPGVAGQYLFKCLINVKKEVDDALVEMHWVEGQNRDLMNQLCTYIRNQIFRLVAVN
In words: METTL16 assay (3H-SAM flashplate scintillation). The settings on record: METTL16 100 nM, RNA 50 nM, 3H-SAM 200 nM, SAM 800 nM, 20 min. As for the experimental part:
(§1) Assays were performed in a 25 μl-volume in 384-well V-bottom polypropylene microplates (Greiner Bio-One, cat. No. 781280) at ambient temperature. Optimized 1× assay buffer was 20 mM HEPES pH 7.5, 50 mM KCl, 1 mM DTT, 0.01% Tween, 0.01% BSG, 0.004 U/μl RNAseOUT (cat. No. 10777019, ThermoFisher Scientific, Waltham, Mass.). For compound screening METTL16 (final concentration, f.c.=100 nM) was added using a Multidrop Combi (ThermoFisher Scientific, Waltham, Mass.) and preincubated for 5 min. Reactions were started by adding 3′ biotinylated RNA ([…]-biotin) (f.c.=50 nM), 3H-SAM (f.c.=200 nM) and non-radiolabeled SAM (f.c.=800 nM) substrates. Reactions proceeded for 20 minutes and were quenched with excess non-radioactive SAM (f.c.=100 μM). The reactions were then transferred to streptavidin-coated flashplates and incubated for 2 hours at 25° C. Following two washing cycles with 0.1% Tween-20, the plates were sealed and read on a TopCount (PerkinElmer, Waltham, Mass.) plate-based scintillation counter. For determination of kinetic parameters, reaction times were optimized so that measurements were taken during the initial velocity phase of the reaction.

In assay [4] the target is METTL1/WDR4 (Homo sapiens, UniProt Q9UBP6). The assay can be described thus: METTL1 assay (3H-SAM flashplate scintillation). The settings on record: METTL1/WDR4 6.25 nM, RNA 25 nM, 3H-SAM 60 nM, 20 min; read-out: METTL1 IC50. The procedure:
as §1, with “KCl, 250 μM MgCl2,” for “KCl,”, “METTL1/WDR4” for “METTL16”, “f.c.=6.25” for “f.c.=100”, “(f.c.=25” for “(f.c.=50 nM), 3H-SAM (f.c.=200”, “3H-SAM (f.c.=60” for “non-radiolabeled SAM (f.c.=800”, “(f.c.=15” for “(f.c.=100”

METTL1/WDR4, sequence (Q9UBP6 whole entry, species assumed): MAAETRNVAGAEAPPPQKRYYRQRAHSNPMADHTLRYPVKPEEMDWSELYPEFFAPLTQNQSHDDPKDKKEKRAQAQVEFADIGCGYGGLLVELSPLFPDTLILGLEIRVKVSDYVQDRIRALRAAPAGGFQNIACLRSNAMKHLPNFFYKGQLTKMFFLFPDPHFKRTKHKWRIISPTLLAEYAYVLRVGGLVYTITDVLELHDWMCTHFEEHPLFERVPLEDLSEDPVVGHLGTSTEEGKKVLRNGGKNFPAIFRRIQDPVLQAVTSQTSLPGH
METTL1/WDR4, sequence (P57081 whole entry partner, species assumed): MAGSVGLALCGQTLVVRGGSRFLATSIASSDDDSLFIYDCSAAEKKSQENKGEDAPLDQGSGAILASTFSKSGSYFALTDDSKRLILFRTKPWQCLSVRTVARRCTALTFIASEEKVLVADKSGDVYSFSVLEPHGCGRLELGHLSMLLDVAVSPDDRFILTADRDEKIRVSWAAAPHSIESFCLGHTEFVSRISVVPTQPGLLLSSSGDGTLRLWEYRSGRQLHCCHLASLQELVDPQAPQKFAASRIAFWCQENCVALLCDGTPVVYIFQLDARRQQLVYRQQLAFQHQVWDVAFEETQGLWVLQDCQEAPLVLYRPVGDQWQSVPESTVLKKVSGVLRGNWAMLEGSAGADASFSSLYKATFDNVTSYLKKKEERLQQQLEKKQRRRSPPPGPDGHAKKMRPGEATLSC
PRMT5-MEP50, sequence (O14744 whole entry): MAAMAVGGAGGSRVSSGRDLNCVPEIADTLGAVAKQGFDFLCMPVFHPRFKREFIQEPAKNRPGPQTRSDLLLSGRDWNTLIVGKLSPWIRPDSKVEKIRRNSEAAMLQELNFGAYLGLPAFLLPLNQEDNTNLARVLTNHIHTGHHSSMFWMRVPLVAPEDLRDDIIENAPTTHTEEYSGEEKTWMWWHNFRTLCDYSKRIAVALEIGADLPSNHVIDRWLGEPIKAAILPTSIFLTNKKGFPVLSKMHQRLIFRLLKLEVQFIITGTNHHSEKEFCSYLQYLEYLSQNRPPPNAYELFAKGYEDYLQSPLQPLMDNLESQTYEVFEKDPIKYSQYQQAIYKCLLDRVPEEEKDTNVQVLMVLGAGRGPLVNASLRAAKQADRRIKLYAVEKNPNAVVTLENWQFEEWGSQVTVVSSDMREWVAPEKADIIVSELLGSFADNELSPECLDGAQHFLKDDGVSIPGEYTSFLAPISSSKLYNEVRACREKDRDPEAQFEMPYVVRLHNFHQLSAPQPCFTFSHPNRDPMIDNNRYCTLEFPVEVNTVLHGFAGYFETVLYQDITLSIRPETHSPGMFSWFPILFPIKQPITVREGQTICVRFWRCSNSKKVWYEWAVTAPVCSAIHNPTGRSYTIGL
PRMT5-MEP50, sequence (Q9BQA1 whole entry partner): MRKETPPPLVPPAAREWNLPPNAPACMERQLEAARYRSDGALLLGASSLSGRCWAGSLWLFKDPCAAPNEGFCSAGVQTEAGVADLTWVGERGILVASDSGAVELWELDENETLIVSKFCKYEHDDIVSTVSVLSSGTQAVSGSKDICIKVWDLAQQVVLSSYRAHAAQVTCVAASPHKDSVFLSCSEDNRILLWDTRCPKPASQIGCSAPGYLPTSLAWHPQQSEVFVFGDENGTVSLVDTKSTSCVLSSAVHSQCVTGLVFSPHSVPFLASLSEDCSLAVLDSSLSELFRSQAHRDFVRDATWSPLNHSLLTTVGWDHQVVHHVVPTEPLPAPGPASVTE
METTL3/METTL14, sequence (Q86U44 whole entry, species assumed): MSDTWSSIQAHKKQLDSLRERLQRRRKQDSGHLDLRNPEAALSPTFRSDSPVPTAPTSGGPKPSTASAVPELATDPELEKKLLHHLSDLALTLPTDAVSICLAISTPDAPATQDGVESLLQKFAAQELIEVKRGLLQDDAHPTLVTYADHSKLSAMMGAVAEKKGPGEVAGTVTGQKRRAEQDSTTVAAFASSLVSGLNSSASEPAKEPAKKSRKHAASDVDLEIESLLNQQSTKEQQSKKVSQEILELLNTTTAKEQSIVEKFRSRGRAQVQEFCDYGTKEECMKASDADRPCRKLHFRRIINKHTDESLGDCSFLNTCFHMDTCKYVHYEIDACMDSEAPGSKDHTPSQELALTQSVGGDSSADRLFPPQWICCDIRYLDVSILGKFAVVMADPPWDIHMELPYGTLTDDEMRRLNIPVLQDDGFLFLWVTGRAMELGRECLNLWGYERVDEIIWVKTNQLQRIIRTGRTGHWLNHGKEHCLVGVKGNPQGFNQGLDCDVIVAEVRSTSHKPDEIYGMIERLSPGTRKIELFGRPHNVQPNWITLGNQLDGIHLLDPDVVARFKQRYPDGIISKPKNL
METTL3/METTL14, sequence (Q9HCE5 whole entry partner, species assumed): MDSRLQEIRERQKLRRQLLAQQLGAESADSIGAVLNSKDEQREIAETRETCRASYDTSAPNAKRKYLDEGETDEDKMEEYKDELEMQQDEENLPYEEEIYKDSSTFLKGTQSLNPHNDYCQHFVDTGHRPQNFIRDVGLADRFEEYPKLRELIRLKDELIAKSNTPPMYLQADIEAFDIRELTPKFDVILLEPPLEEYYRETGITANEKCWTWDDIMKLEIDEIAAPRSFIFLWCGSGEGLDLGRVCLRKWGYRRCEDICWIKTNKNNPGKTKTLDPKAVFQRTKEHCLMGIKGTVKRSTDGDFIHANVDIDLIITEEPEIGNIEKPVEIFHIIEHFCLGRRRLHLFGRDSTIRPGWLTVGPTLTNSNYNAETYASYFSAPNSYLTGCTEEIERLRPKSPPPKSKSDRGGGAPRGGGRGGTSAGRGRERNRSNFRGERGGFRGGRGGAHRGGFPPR

As for `CNc1ccc2ccc(OCc3cccc(-n4cc(CCN(C)C)c5c(N)ncnc54)c3)cc2n1` [Compound I-32], the IC50 (in general, the midpoint of a concentration-inhibition curve) in assay [1] is 100 to 1000 nM; in assay [2] it was over 1000 nM; in assay [3] it was over 1000 nM; in assay [4], over 1000 nM.
Take `CNc1ccc2ccc(OCc3cc(C#N)cc(-n4ccc5c(N)ncnc54)c3)cc2n1` [Compound I-119]: the IC50 in assay [1] was 100 to 1000 nM; in assay [2] it was over 1000 nM; in assay [3], over 1000 nM; in assay [4] it was over 1000 nM.
For the compound `CNc1ccc2ccc(OCc3ccnc(-n4cc(Cl)c5c(N)ncnc54)c3)cc2n1` [Compound I-85], the half-maximal inhibitory concentration (IC50) was 100 to 1000 nM in assay [1], over 1000 nM in assay [2], over 1000 nM in assay [3] and over 1000 nM in assay [4].
`CCc1ncc(-n2cc(Cl)c3c(N)ncnc32)cc1COc1ccc2ccc(NC)nc2c1` [Compound I-68]: the IC50 in assay [1] was 10 to 100 nM; in assay [2], over 1000 nM; in assay [3], over 1000 nM; in assay [4], over 1000 nM.
Take `CNc1ccc2ccc(OCc3cc(-n4cc(Cl)c5c(N)ncnc54)ncn3)cc2n1` [Compound I-64]: the 50% inhibitory concentration (IC50) in assay [1], in assay [2], in assay [3] and in assay [4] was over 1000 nM in each case.
On to `CNc1ccc2ccc(OCc3cccc(-c4c[nH]c5c(N)ncnc45)c3)cc2n1` [Compound I-71], for which the half-inhibitory concentration (IC50) was 10 to 100 nM in assay [1], over 1000 nM in assay [2], over 1000 nM in assay [3] and over 1000 nM in assay [4].
For the compound `CNc1ccc2ccc(OCc3nnc(-n4cc(Cl)c5c(N)ncnc54)s3)cc2n1` [Compound I-62], the concentration for half-maximal inhibition (IC50) was over 1000 nM in assay [1], 10 to 100 nM in assay [2], over 1000 nM in assay [3] and over 1000 nM in assay [4].
Consider `CNc1ccc2ccc(CNc3cccc(-n4cc(Br)c5c(N)ncnc54)c3)cc2n1` [Compound I-72, 7-{[(3-{4-amino-5-bromo-7H-pyrrolo[2,3-d]pyrimidin-7-yl}phenyl)amino]methyl}-N-methylquinolin-2-amine], for which the half-maximal inhibitory concentration (IC50) is 100 to 1000 nM in assay [1], over 1000 nM in assay [2], over 1000 nM in assay [3] and over 1000 nM in assay [4].
Consider `Cc1cc(N)c2ccc(OCc3cccc(-n4cc(Cl)c5c(N)ncnc54)c3)cc2n1` [Compound I-65], for which the IC50 in assay [1] was 10 to 100 nM; in assay [2], over 1000 nM; in assay [3] it was over 1000 nM; in assay [4], over 1000 nM.
With `CNc1ccc2ccc(OCc3cccc(-n4cc(C5CC5)c5c(N)ncnc54)c3)cc2n1` [Compound I-73], the concentration for half-maximal inhibition (IC50) was 10 to 100 nM in assay [1], over 1000 nM in assay [2], over 1000 nM in assay [3] and over 1000 nM in assay [4].
Turning to `CNc1ccc2ccc(OCc3cccc(-n4ccc5c(N)ncnc54)c3)cc2n1` [Compound I-78], the IC50 is 10 to 100 nM in assay [1], over 1000 nM in assay [2], over 1000 nM in assay [3] and over 1000 nM in assay [4].
Take `C[C@H]1CCN1c1ccc2ccc(OCc3cncc(-n4cc(C5CCCC5)c5c(N)ncnc54)c3)cc2n1` [Compound I-125]: the concentration for half-maximal inhibition (IC50) in assay [1] was 10 to 100 nM; in assay [2], over 1000 nM; in assay [3] it was over 1000 nM; in assay [4], over 1000 nM.
For `Nc1ncnc2c1c(Cl)cn2-c1cccc(COc2ccc3ccc(NCC4CC4)nc3c2)c1` [Compound I-67], the IC50 in assay [1] is 100 to 1000 nM; in assay [2], over 1000 nM; in assay [3], over 1000 nM; in assay [4] it was over 1000 nM.
Take `CNc1ccc2ccc(OCc3cc(F)cc(-n4cc(Cl)c5c(N)ncnc54)c3)cc2n1` [Compound I-76]: the IC50 was 10 to 100 nM in assay [1], over 1000 nM in assay [2], over 1000 nM in assay [3] and over 1000 nM in assay [4].
Turning to `CNc1ccc2ccc(OCc3cccc(-n4cc(Cl)c5c(N)ncnc54)n3)cc2n1` [Compound I-84], the concentration for half-maximal inhibition (IC50) is 10 to 100 nM in assay [1], over 1000 nM in assay [2], over 1000 nM in assay [3] and over 1000 nM in assay [4].
Regarding `CNc1ccc2ccc(OCc3cc(O)cc(-n4cc(Cl)c5c(N)ncnc54)c3)cc2n1` [Compound I-81], the IC50 in assay [1] was 10 to 100 nM; in assay [2], over 1000 nM; in assay [3], over 1000 nM; in assay [4], over 1000 nM.
`CNc1ccc2ccc(OCc3cc(OC)cc(-n4cc(Cl)c5c(N)ncnc54)c3)cc2n1` [Compound I-82]: the half-maximal inhibitory concentration (IC50) in assay [1] was 100 to 1000 nM; in assay [2] it was over 1000 nM; in assay [3], over 1000 nM.
For `CNc1ccc2ccc(OCc3cc(-n4cc(Cl)c5c(N)ncnc54)ccc3OC)cc2n1` [Compound I-83], the half-maximal inhibitory concentration (IC50) in assay [1], in assay [2] and in assay [3] was over 1000 nM throughout.
Take `Cc1cc(N)c2ccc(OCc3cccc(-n4ccc5c(N)ncnc54)c3)cc2n1` [Compound I-66]: the IC50 in assay [1] is 100 to 1000 nM; in assay [2], over 1000 nM; in assay [3] it was over 1000 nM; in assay [4], over 1000 nM.
Take `CNc1ccc2ccc(OCc3cncc(-n4ccc5c(N)nc(N(C)C)nc54)c3)cc2n1` [Compound I-49]: the 50% inhibitory concentration (IC50) in assay [1], in assay [2] and in assay [3] was over 1000 nM each time.
With `CNc1ccc2ccc(OCc3cncc(-n4ccc5c(N)nc(N)nc54)c3)cc2n1` [Compound I-56], the IC50 was 100 to 1000 nM in assay [1], over 1000 nM in assay [2] and over 1000 nM in assay [3].
In the case of `Nc1ccc2ccc(OCc3cccc(-n4cc(Cl)c5c(N)ncnc54)c3)cc2n1` [Compound I-77], the IC50 in assay [1], in assay [2], in assay [3] and in assay [4] was over 1000 nM throughout.
With `CNc1ccc2ccc(OCc3cc(-n4cc(Cl)c5c(N)ncnc54)cnc3N)cc2n1` [Compound I-28], the concentration for half-maximal inhibition (IC50) in assay [1] is 10 to 100 nM; in assay [2], over 1000 nM; in assay [3] it was over 1000 nM; in assay [4], over 1000 nM.
Take `Cc1cc(N)c2ccc(OCc3cncc(-n4cc(Cl)c5c(N)ncnc54)c3)cc2n1` [Compound I-53]: the figures for the IC50 in assay [1], in assay [2] and in assay [3] were 10 to 100 nM, over 1000 nM and over 1000 nM, respectively.
Regarding `C=CC(=O)Nc1nc(N)c2ccn(-c3cncc(COc4ccc5ccc(NC)nc5c4)c3)c2n1` [Compound I-31], the IC50 in assay [1], in assay [2] and in assay [3] was over 1000 nM in each case.
Take `CNc1ccc2ccc(OCc3cccc(-n4cc(Br)c5c(N)ncnc54)c3)cc2n1` [Compound I-43]: the IC50 is 10 to 100 nM in assay [1], over 1000 nM in assay [2] and over 1000 nM in assay [3].
